Where “and” joins values, the source holds several entries; their conditions need not be identical. Equal entries are not always repeated.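 A five-concentration, 48-hour dose response in 96-well plates underlies each endpoint, interpolated linearly between surrounding concentrations. GI50 marks 50% less growth.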 Calls of active or inactive are those of the source. No stated cut-off is given here; in the data, active = GI50 up to about 1.1 µM and inactive = higher.
Experiments:
Assay in all cases: NCI tumour cell line growth inhibition, 48 h
MDA-MB-435 = system: MDA-MB-435
OVCAR-5 = system: OVCAR-5
SW-620 = system: SW-620
A549 = system: A549
K562 = system: K562
SR = system: SR
HCT-116 = system: HCT-116
HT-29 = system: HT-29
RPMI-8226 = system: RPMI-8226
SNB-78 = system: SNB-78
TK-10 = system: TK-10
NCI-H522 = system: NCI-H522
T47D = system: T47D
HL-60 = system: HL-60
HCC 2998 = system: HCC 2998
SF-295 = system: SF-295
UACC-62 = system: UACC-62
MDA-N = system: MDA-N
MCF7 = system: MCF7
SK-MEL-28 = system: SK-MEL-28

Measured: GI50

O=[N+]([O-])c1ccc2c(Nc3ccccc3-c3ccccc3Nc3c4ccccc4nc4cc([N+](=O)[O-])ccc34)c3ccccc3nc2c1
inactive: MDA-MB-435 1.34 µM | OVCAR-5 25.9 µM | SW-620 1.69 µM | A549 6.07 µM | K562 1.57 µM | SR 1.69 µM | HCT-116 1.65 µM | HT-29 4.14 µM | RPMI-8226 1.69 µM | SNB-78 > 100 µM | TK-10 4.46 µM | NCI-H522 3.87 µM | T47D 7.24 µM | HL-60 2.68 µM | HCC 2998 3.98 µM | SF-295 5.4 µM | UACC-62 3.16 µM | MDA-N 1.17 µM | MCF7 4.18 µM | SK-MEL-28 24.2 µM

Cc1cc(N(CCC#N)CCC#N)ccc1/N=N/c1ccc([N+](=O)[O-])cc1
inactive: OVCAR-5 > 100 µM | SW-620 > 10 µM | A549 > 100 µM | K562 > 100 µM | SR > 100 µM | HCT-116 17.7 µM | HT-29 > 100 µM | RPMI-8226 44.9 µM | SNB-78 34.1 µM | TK-10 39.8 µM | NCI-H522 > 100 µM | HL-60 > 100 µM | HCC 2998 > 100 µM | SF-295 56.4 µM | UACC-62 > 10 µM | SK-MEL-28 > 100 µM

O=C(O)[C@@H]1CCCC[C@@H]1C(=O)N(C1CCCCC1)C1CCCCC1
inactive: OVCAR-5 > 100 µM | SW-620 > 100 µM | A549 > 100 µM | K562 > 100 µM | SR > 100 µM | HCT-116 > 100 µM | HT-29 > 100 µM | RPMI-8226 > 100 µM | SNB-78 > 100 µM | TK-10 > 100 µM | NCI-H522 > 100 µM | HL-60 > 100 µM | HCC 2998 > 100 µM | SF-295 > 100 µM | UACC-62 > 100 µM | SK-MEL-28 > 100 µM

CCOC(=O)C(=O)Nc1c(C)cccc1CC
inactive: OVCAR-5 > 100 µM | SW-620 > 100 µM | A549 > 100 µM | K562 > 100 µM | SR > 100 µM | HCT-116 > 100 µM | HT-29 > 100 µM | RPMI-8226 > 100 µM | SNB-78 > 100 µM | TK-10 > 100 µM | NCI-H522 > 100 µM | HL-60 > 100 µM | HCC 2998 > 100 µM | SF-295 > 100 µM | UACC-62 > 100 µM | SK-MEL-28 > 100 µM

CC1(C)C(=O)C(C)(C)C1=NNC(N)=S
inactive: OVCAR-5 > 100 µM | SW-620 > 100 µM | A549 > 100 µM | K562 > 100 µM | SR > 100 µM | HCT-116 > 100 µM | HT-29 > 100 µM | RPMI-8226 > 100 µM | SNB-78 > 100 µM | TK-10 > 100 µM | NCI-H522 > 100 µM | HL-60 > 100 µM | HCC 2998 > 100 µM | SF-295 > 100 µM | UACC-62 > 100 µM | SK-MEL-28 > 100 µM

CC1CCC2(C(=O)O)CCC3(C)C(=CCC4C5(C)CCC(O)C(C)(C)C5CCC43C)C2C1C (stereo not given)
inactive: MDA-MB-435 30.1 µM | OVCAR-5 11.1 µM and 10.6 µM | K562 3.84 µM | SR 19.5 µM | HCT-116 14.4 µM and 7.28 µM | HT-29 20.7 µM and 11 µM | RPMI-8226 10.6 µM and 7.1 µM | SNB-78 13.3 µM | TK-10 19.7 µM | T47D 14.2 µM | HL-60 3.05 µM and 2.64 µM | HCC 2998 11.1 µM and 10.6 µM | SF-295 3.3 µM and 3.22 µM | UACC-62 19.6 µM and 10.8 µM | MDA-N 14.6 µM | MCF7 12.7 µM and 22 µM

Source: ChEMBL document CHEMBL1201862, “PubChem BioAssay data set” (2004)
